Measured values from patent US20230382950A1 (priority 2020, published 2023).
pEC50: −log10 of the molar value. Like-named read-outs stand apart in the source and are kept apart here. *1 amine or outer side, *2 acyl side, *3 side chain or, on linkers, in order; H or OH if unused. Where a SMILES comes first, the peptide text is derived from it. Bridges are numbered along the chain shown (N, C = ends). [ ]: non-standard residue; d: D form. The star is where a group is joined. Ala(piperidin-4-yl) = O=C([C@H](CC1CCN([*:3])CC1)N[*:1])[*:2]; Malonyl(2,2-Me2,histaminyl) = CC(C)(C(=O)NCCc1cnc[nH]1)C(=O)*; dBip = N[C@H](Cc1ccc(-c2ccccc2)cc1)C(=O)O; Oic = O=C(O)[C@@H]1C[C@@H]2CCCC[C@@H]2N1; Phe(4-Br) = N[C@@H](Cc1ccc(Br)cc1)C(=O)O; hArg = N=C(N)NCCCC[C@H](N)C(=O)O; Pip = O=C(O)[C@@H]1CCCCN1; Nle = CCCC[C@H](N)C(=O)O

Columns and labels:
human Apelin receptor [1] = target: T1, human Apelin receptor (Homo sapiens, UniProt P35414); assay: β-arrestin accumulation assay, CHO-K1 cells overexpressing human Apelin receptor and β-arrestin (DiscoverRx); format: cell-based; parameters: host or cells: CHO-K1 cells; settings: for EC50: read-out: pEC50 (converted)
T1 sequence (P35414 1-380): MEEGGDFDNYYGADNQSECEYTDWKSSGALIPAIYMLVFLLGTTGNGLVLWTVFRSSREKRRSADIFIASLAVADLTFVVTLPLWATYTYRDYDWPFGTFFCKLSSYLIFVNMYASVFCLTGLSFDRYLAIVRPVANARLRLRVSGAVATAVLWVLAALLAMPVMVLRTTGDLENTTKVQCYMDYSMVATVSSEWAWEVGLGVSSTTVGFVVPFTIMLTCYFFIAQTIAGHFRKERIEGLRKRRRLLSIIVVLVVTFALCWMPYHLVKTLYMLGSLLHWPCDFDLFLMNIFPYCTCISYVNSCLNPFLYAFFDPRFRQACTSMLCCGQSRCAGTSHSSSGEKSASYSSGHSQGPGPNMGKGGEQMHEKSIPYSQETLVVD
Experimental: β-arrestin assay. […] After 16 h incubation at 37° C. media was removed and cells were incubated at 37° C. for 90 min in serum free media containing increasing concentrations of test agonist. The assay reaction was stopped by adding detection reagent (DiscoveRx) and incubation for 60 min in the dark. Levels of receptor activation were then measured on a PheraStar fluorescence plate reader (BMG LabTech) and EC50 values were determined using Graphpad Prism.

human Apelin receptor [2] = target: T1, human Apelin receptor; assay: cAMP accumulation assay (HTRF), functional agonism, CHO cells stably expressing the human Apelin receptor; format: cell-based; settings: for Emax: CHO; for EC50: read-out: pEC50 (converted)
Source text: cAMP functional assay. cAMP production was quantified using the Homogeneous Time-Resolved Fluorescence (HTRF) cAMP dynamic-2 assay (Cisbio, France).

SMILES	pEC50 (human Apelin receptor [1])	pEC50 (human Apelin receptor [2])	Emax (human Apelin receptor [2])	EC50 (human Apelin receptor [1])	Emax (human Apelin receptor [2]; read-out: Emax)	EC50 (human Apelin receptor [2])
CC(C)C[C@H](NC(=O)[C@@H](CCCNC(=N)N)NC(=O)[C@@H]1CCCCN1C(=O)[C@H](CCCCNC(=N)N)NC(=O)[C@H](CCC(N)=O)NC(=O)[C@@H](CCCNC(=N)N)NC(=O)C(C)(C)C(=O)NCCc1c[nH]cn1)C(=O)N[C@H]1CCC(=O)NCCCC[C@@H](C(=O)N2[C@H](C(=O)N[C@@H](Cc3ccc(Br)cc3)C(=O)N3CCC[C@H]3C(=O)N[C@H](Cc3ccc(-c4ccccc4)cc3)C(=O)O)C[C@@H]3CCCC[C@@H]32)NC(=O)[C@H](CC2CCNCC2)NC(=O)[C@H](Cc2c[nH]cn2)NC1=O [Example 1] ({Malonyl(2,2-Me2,histaminyl)}-[dR]Q[hArg][Pip][dR]LEH[Ala(piperidin-4-yl)]K[Oic][Phe(4-Br)]P[dBip]-OH; lactam 7-10)	< 5.00	8.50	70.5%			
CCCC[C@H](NC(=O)[C@@H]1C[C@@H]2CCCC[C@@H]2N1C(=O)[C@@H]1CCCCNC(=O)CC[C@H](NC(=O)[C@H](CC(C)C)NC(=O)[C@@H](CCCNC(=N)N)NC(=O)[C@@H]2CCCCN2C(=O)[C@H](CCCCNC(=N)N)NC(=O)[C@H](CCC(N)=O)NC(=O)[C@@H](CCCNC(=N)N)NC(=O)C(C)(C)C(=O)NCCc2c[nH]cn2)C(=O)N[C@@H](Cc2c[nH]cn2)C(=O)N[C@@H](CC2CCNCC2)C(=O)N1)C(=O)N1CCC[C@H]1C(=O)N[C@H](Cc1ccc(-c2ccccc2)cc1)C(=O)O [Example 2] ({Malonyl(2,2-Me2,histaminyl)}-[dR]Q[hArg][Pip][dR]LEH[Ala(piperidin-4-yl)]K[Oic][Nle]P[dBip]-OH; lactam 7-10)	< 5.00	7.80	31.2%			
CCCC[C@H](NC(=O)[C@@H]1C[C@@H]2CCCC[C@@H]2N1C(=O)[C@@H]1CCCCNC(=O)CC[C@H](NC(=O)[C@H](CC(C)C)NC(=O)[C@@H](CCCNC(=N)N)NC(=O)[C@@H]2CCCCN2C(=O)[C@H](CCCCNC(=N)N)NC(=O)[C@H](CCC(N)=O)NC(=O)[C@@H](CCCNC(=N)N)NC(=O)C(C)(C)C(=O)NCCc2c[nH]cn2)C(=O)N[C@@H](Cc2ccc(Br)cc2)C(=O)N[C@@H](CC2CCNCC2)C(=O)N1)C(=O)N1CCC[C@H]1C(=O)N[C@H](Cc1ccc(-c2ccccc2)cc1)C(=O)O [Example 4] ({Malonyl(2,2-Me2,histaminyl)}-[dR]Q[hArg][Pip][dR]LE[Phe(4-Br)][Ala(piperidin-4-yl)]K[Oic][Nle]P[dBip]-OH; lactam 7-10)				> 10000 nM	28.4%	100 nM
CC(C)C[C@H](NC(=O)[C@@H](CCCNC(=N)N)NC(=O)[C@@H]1CCCCN1C(=O)[C@H](CCCCNC(=N)N)NC(=O)[C@H](CCC(N)=O)NC(=O)C(C)(C)C(=O)NCCc1c[nH]cn1)C(=O)N[C@H]1CCC(=O)NCCCC[C@@H](C(=O)N2[C@H](C(=O)N[C@@H](Cc3ccc(Br)cc3)C(=O)N3CCC[C@H]3C(=O)N[C@H](Cc3ccc(-c4ccccc4)cc3)C(=O)O)C[C@@H]3CCCC[C@@H]32)NC(=O)[C@H](CC2CCNCC2)NC(=O)[C@H](Cc2c[nH]cn2)NC1=O [Example 5] ({Malonyl(2,2-Me2,histaminyl)}-Q[hArg][Pip][dR]LEH[Ala(piperidin-4-yl)]K[Oic][Phe(4-Br)]P[dBip]-OH; lactam 6-9)				> 10000 nM	48.2%	5.01 nM
CC(C)C[C@@H]1NC(=O)[C@@H](CCCNC(=N)N)NC(=O)[C@@H](NC(=O)[C@H](CCCCNC(=N)N)NC(=O)[C@H](CCC(N)=O)NC(=O)C(C)(C)C(=O)NCCc2c[nH]cn2)CC(=O)NCCCC[C@@H](C(=O)N[C@@H](CC2CCNCC2)C(=O)NCC(=O)N2[C@H](C(=O)N[C@@H](Cc3ccc(Br)cc3)C(=O)N3CCC[C@H]3C(=O)N[C@H](Cc3ccc(-c4ccccc4)cc3)C(=O)O)C[C@@H]3CCCC[C@@H]32)NC(=O)CNC1=O [Example 6] ({Malonyl(2,2-Me2,histaminyl)}-Q[hArg]D[dR]LGK[Ala(piperidin-4-yl)]G[Oic][Phe(4-Br)]P[dBip]-OH; lactam 3-7)	< 4.00	7.90	30.5%			
